Each structure is given as a SMILES string.

Turning to `CC1(N)CCN(C2=Nc3c(nc(Cl)nc3Nc3ccc(F)c(Cl)c3)CN2)CC1`, the melting point amounted to 212 °C.

Consider `CCCCCCCCCCCCCCCCNc1ccc(C(=O)NS(=O)(=O)c2ccccc2)cc1`, for which the melting point was 136 to 138 °C.

Regarding `CCCCSc1ccccc1C(=O)O`, the melting point lay in the range of 96 to 101 °C.

`COc1cccc(CN2CCN(CCCOc3ccc4c(C)cc(=O)[nH]c4c3)CC2)c1` gave a melting point of 149 to 150 °C.

In the case of `COc1ccc(CNc2nc(N3CCn4ccnc4C3)ncc2C(=O)NCC2CN(C)CCO2)cc1Cl` (centres undefined), the melting point lay in the range of 132 to 134 °C.

Consider `CCn1c2ccccc2c2cc(NC(=O)OC)ncc21`, for which the melting point is 213 to 214 °C.

Take `Cc1cnccc1C#N`: the melting point was 45 to 47 °C.

As for `CC(C)Cc1c2c(nn1C)c(O)nc1ccccc12`, the melting point was over 280 °C.

The molecule `COCCNc1c([N+](=O)[O-])cc(C(F)(F)F)c2sc(=O)sc12` showed a melting point of 96 to 98 °C.

Take `CCCCCCCCCCCCCCCc1ccc(C(=O)c2ccccc2)c(O)c1`: the melting point lay within 46 to 47 °C.

Consider `CC(C)(C)C(=O)Nc1ccc(C(F)(F)F)cc1C=O`, for which the melting point lay in the range of 69 to 73 °C.

For `C[C@@H](Cc1ccc(O)cc1)NS(=O)(=O)c1ccccc1`, the melting point was 92 to 94 °C.

Molecule `COc1ccc(CCNS(=O)(=O)Cc2ccc3[nH]cc(CCN)c3c2)cc1` gave a melting point of 128 to 129 °C.

The molecule `O=C1CCc2c1cnn2Cc1ccccc1` yielded a melting point of 92 to 93 °C.

`CN(Cc1ccccc1)C(=O)COc1ccc([N+](=O)[O-])cc1` displayed a melting point of 95 to 96 °C.

In the case of `CS(=O)(=O)c1ccc(C(CC2CCCC2)C(=O)O)cc1S(C)(=O)=O` (centres undefined), the melting point lay in the range of 64 to 68 °C.

Turning to `O=C(N=P(c1ccccc1)(c1ccccc1)c1ccccc1)OCC1CC1`, the melting point lay within 107 to 113 °C.

The molecule `Cc1oc(-c2ccc(C(F)(F)F)cc2)nc1CCOc1c(Cl)cc(CN(O)C(N)=O)cc1Cl` yielded a melting point of 137 to 139 °C.

`CC(C)c1ccc(-c2ncc(-c3cccc(C(=O)O)c3)o2)cc1` showed a melting point of 193 to 195 °C.

`CCCOc1ccc(S(=O)(=O)N(C)C)cc1-c1ccc(C#N)c(=O)[nH]1` had a melting point of 225 to 226 °C.

For `ClCCCCCOc1ccc(C2=C(c3ccccc3)CCCc3ccccc32)cc1`, the melting point fell in the range of 118 to 120 °C.

In turn, `CNC(=O)NS(=O)(=O)c1cccc2c1OS(=O)(=O)C(C)C2` (centres undefined) displayed a melting point of 235 to 238 °C.

`Nc1cc(Oc2ccc(Oc3cc(N)cc(C(F)(F)F)c3)c(C(F)(F)F)c2)cc(C(F)(F)F)c1`: the melting point lay within 82 to 84 °C.

Regarding `COc1ccc(S(=O)(=O)N2CCC[C@H]2C(=O)NO)cc1`, the melting point was in the range of 164 to 166 °C.

`CC1(C)[C@@]2(C)CC[C@]1(NCC(=O)N1CCC[C@H]1C#N)C(=O)OC2` gave a melting point of 174 to 177 °C.

For `CCCC[C@H](NC(=O)[C@H](CC(C)C)NC(=O)c1ccc(C(F)(F)F)cc1)C(=O)CSCc1ccco1`, the melting point is 121 to 123 °C.

As to `CC1Cc2cccc(Cl)c2C1=O` (centres undefined), the melting point lay in the range of 42 to 43 °C.

`COC(=O)c1ccccc1Nc1cc(C(C)(C)C)c(O)c(C(C)(C)C)c1`: the melting point was in the range of 155 to 158 °C.

Molecule `COC(=O)Nc1cc(N2CC=CCC2)nc2nc(=O)on12` gave a melting point of 213 to 214 °C.

`CC1(N)CN(c2c(F)c(N)c3c(=O)c(C(=O)O)cn(C4CC4)c3c2F)C1` had a melting point of 243 to 247 °C.

`CN(C)[C@@H]1CN2C(=O)N(c3cc(Cl)cc(Cl)c3)C(=O)[C@@]2(Cc2ccc(Br)cc2)C1` gave a melting point of 54 °C.

`COC(=O)[C@H]1C[C@H](C(=O)O)Nc2cccc(Cl)c21` (relative stereo) registered a melting point of 159 to 161 °C.

Molecule `O=c1cc2c(n[nH]1)-c1ccccc1SCC2` had a melting point of 311 to 313 °C.

`CCCc1cc2cc(OC)ccc2[nH]1` gave a melting point of 49 to 50 °C.

`CC(=O)OC[C@H]1[C@H](O)[C@@H](O)[C@@H](O)[C@@H]2NC(=O)c3cc4c(cc3[C@@H]12)OCO4` showed a melting point of over 200 °C.

`CCCCCCCCCCCCCCCCCCN(C)S(=O)(=O)c1cc(C(=O)OC)c([N+](=O)[O-])c(C(=O)OC)c1` gave a melting point of 70 to 72 °C.

In turn, `COc1nccnc1C1=CN2CCC1CC2` showed a melting point of 95 to 96 °C.

The molecule `CCCc1c(OCCOCCOCCOc2c(C(C)=O)ccc(OCC(=O)O)c2CCC)ccc(C(C)=O)c1O` had a melting point of 74 to 77 °C.

Take `C=CCC(C(=O)NC)c1ccccc1` (centres undefined): the melting point lay in the range of 97 to 99 °C.

`Cc1c(N2CCN(C)C(C)C2)c(F)cc2c(=O)c(C(=O)O)cn(C3CC3)c12` (centres undefined): the melting point was in the range of 181 to 183 °C.

The molecule `N#Cc1c(F)c(F)c(CO)c(F)c1F` returned a melting point of 50 °C.

In turn, `COn1c(C#N)c(C#N)c(Br)c1-c1ccc(Cl)cc1` had a melting point of 166 to 167 °C.

With `O=C(/C=C/c1c(Cl)cccc1Cl)/C=C/c1c(Cl)cccc1Cl`, the melting point is 145 to 146 °C.

The molecule `Cc1nc(N2CCN(CC3CC3)C2=O)sc1C(=O)NCc1cccnc1` came in with a melting point of 157 to 158 °C.

Consider `CCCCCCCCCCCCCCCNC(=O)OCCOCCOC(=O)N(Cc1ccccn1)C(=O)OCC`, for which the melting point lay in the range of 52 to 53 °C.

Molecule `O=[N+]([O-])c1ccc(Oc2ccc3cc(Oc4ccc([N+](=O)[O-])c(O)c4)ccc3c2)cc1O` displayed a melting point of 244 to 246 °C.

In the case of `COc1ccc(C[C@H](Nc2nc3ccc(Cl)cc3cc2C(=O)O)C(=O)O)cc1`, the melting point was 155 to 158 °C.

Molecule `CC1Cc2cc3c(cc2C(c2ccc([N+](=O)[O-])cc2)=NN1)OCO3` (centres undefined) gave a melting point of 162 to 164 °C.

`O=c1c2cc(Br)ccc2nc(CSc2ncnc3[nH]cnc23)n1-c1ccccc1Cl` yielded a melting point of 212 to 242 °C.

Turning to `Cc1cc(NCCO)c2[nH]nc(-c3ccccc3)c2n1`, the melting point is 135 °C.

`Nc1nnc(N2CCN(Cc3ccncc3)CC2)[nH]1` showed a melting point of 191 to 193 °C.

Consider `CCOC(=O)C(O)=Cc1ccc(S(=O)c2ccc(F)cc2)cn1` (centres undefined), for which the melting point is 148 to 150 °C.

In the case of `COc1c(-c2cc3c(s2)CCC(C)(C)C3N=[N+]=[N-])ccc2c(=O)c(C(=O)O)cn(C3CC3)c12` (centres undefined), the melting point was in the range of 89 to 90 °C.

As to `CC(=O)N(C(C)=O)c1nsc2ccccc12`, the melting point was 65 to 67 °C.

As to `COC(=O)Nc1cc(Cl)nc(NC(=O)OC)n1`, the melting point fell in the range of 156 to 158 °C.

In the case of `COc1ccc(S(=O)(=O)C2(C(=O)O)CCN(Cc3ccc(C)cc3)CC2)cc1`, the melting point is 176 to 177 °C.

`COC(=O)CCCc1nc2c([nH]1)c(=O)n(C)c(=O)n2C` had a melting point of 200 to 204 °C.

Turning to `CCC(O)(C(N)=O)c1cc(C(F)(F)F)cc(C(F)(F)F)c1` (centres undefined), the melting point lay in the range of 128 to 129 °C.

Molecule `CCCCCCCCCCCCCCCCCC(=O)c1ccc(OC)c(C(=O)O)c1` yielded a melting point of 194 to 196 °C.

On to `COc1cc(C(=O)N(C(C)C)C2CCCCC2)ccc1Cn1c(C)nc2cccnc21`, for which the melting point was in the range of 210 to 212 °C.

`CC=CC=NNC(=O)c1cnccn1` showed a melting point of 192 to 194 °C.

The molecule `CCOC(=O)C(=C1CCCN1C)c1ccc(OC)cc1` came in with a melting point of 81 to 82 °C.

The molecule `CCCNCc1cnc(-c2ncn3c2CN(C)C(=O)c2cc(F)ccc2-3)o1` yielded a melting point of 134 to 136 °C.

As for `O=C(Nc1ccc2cc(CN3CCCC3)cnc2c1)c1ccc(-c2ccc(Cl)cc2)cc1`, the melting point lay within 217 to 220 °C.

Source of the values: a melting point compilation (Tetko et al.; mined from patent text by program, amines drawn as free bases though some values may be those of a salt).
